Test results reported in patent US20260364184A1, “COMPOUND BASED ON OXOISOINDOLINYL-SUBSTITUTED TETRAHYDROPYRIMIDINE-DIONE AND USE THEREOF” (GLUETACS THERAPEUTICS (SHANGHAI) CO., LTD., priority 2023, published 2026).
One block for each molecule: values may come before it.

Assays:
Type in all cases: cell-based
[1] = biological target: T1, AR (Homo sapiens, UniProt P10275); experiment: Western blot degradation of AR; conditions: LnCap Cell; 24 hours
T1 construct: expression of target proteins in cells; endogenous in cells
T1 sequence (P10275 1-920): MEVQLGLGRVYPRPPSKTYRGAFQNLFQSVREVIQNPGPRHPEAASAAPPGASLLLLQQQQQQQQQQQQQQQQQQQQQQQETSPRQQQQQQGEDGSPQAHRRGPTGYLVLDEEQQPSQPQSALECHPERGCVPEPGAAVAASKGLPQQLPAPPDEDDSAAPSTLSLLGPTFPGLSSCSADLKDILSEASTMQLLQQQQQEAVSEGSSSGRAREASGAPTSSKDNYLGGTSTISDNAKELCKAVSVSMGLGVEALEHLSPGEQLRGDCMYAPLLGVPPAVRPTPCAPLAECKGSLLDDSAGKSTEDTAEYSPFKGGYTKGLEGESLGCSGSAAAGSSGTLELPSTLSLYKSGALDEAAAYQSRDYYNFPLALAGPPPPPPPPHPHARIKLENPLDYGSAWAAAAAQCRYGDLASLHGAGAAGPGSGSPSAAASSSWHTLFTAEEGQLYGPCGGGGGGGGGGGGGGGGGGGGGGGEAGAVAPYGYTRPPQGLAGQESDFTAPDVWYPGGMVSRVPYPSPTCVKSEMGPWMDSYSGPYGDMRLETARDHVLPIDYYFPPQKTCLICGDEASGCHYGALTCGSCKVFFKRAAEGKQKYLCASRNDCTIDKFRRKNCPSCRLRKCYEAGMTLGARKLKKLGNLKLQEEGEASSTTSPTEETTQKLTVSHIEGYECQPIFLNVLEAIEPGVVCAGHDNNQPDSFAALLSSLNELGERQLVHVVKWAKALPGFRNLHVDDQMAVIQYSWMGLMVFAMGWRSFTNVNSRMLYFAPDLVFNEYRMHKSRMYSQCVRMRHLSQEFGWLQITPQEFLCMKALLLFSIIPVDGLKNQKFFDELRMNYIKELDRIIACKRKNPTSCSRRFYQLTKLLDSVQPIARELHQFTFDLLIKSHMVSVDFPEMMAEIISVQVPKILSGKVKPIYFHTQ
Protocol: Conventional Western blot assay was performed to evaluate the effects of the compounds of the present disclosure on the expression of target proteins in cells.
(1) Cell Seeding and Protein Harvesting: The selected cells were processed according to the cell seeding procedure and protein harvesting procedure in Table II-2.
(2) To the collected supernatant, 5×SDS sample loading buffer was added, followed by denaturation at 95 °C for 5 minutes. The denatured samples were then separated by SDS-PAGE electrophoresis on a polyacrylamide gel. Proteins were transferred to a nitrocellulose membrane (0.45 μm NC membrane), blocked with blocking buffer at room temperature for 1 hour, and subjected to antibody incubation and development procedures according to the antibody manufacturer's instructions (Cell Signaling Technology).
Half-Maximal Degradation Concentration value (the drug concentration required for degrading proteins by 50%, abbreviated as DC50) reads method: comparing the grayscale values of Western blot bands from drug-treated samples with those from blank DMSO-treated controls, and identifying the drug concentration range at which the grayscale value is half that of the DMSO-treated control bands.
DC50 values can be calculated using ImageJ software to measure grayscale values of Western blot bands from drug-treated samples. The concentration-response curve is fitted to estimate the drug concentration corresponding to half the grayscale value.
Target protein remaining (%) refers to the percentage of target protein remaining in cells after treatment with protein degrader compounds.
Calculation method for target protein remaining (%): Use ImageJ software to measure grayscale values of Western blot bands from drug (protein degrader)-treated samples. The grayscale value of drug-treated bands is divided by that of internal control protein bands, and the resulting quotient is normalized to obtain the relative percentage of remaining target protein after protein degrader treatment.
Target protein degradation rate (%)=1−target protein remaining (%).

[2] = tested on: Human T lymphocytic leukemia cell line (Jurkat); experiment: Inhibition of Jurkat cell proliferation (CellTiter luminescent viability); conditions: Homo sapiens, Table IF3, AR inhibitor-based, 96 hours
Protocol: The tumor cells used herein were cultured in a cell culture medium listed in table 3 at 37 °C in an incubator with 5% CO2. Prior to experimentation, all cell lines used were correctly identified by STR profiling, and tested negative for mycoplasma contamination using a mycoplasma detection kit through routine screenings.
The IC50 values of the compounds of the present disclosure (including the compounds in Table 1, Table 2, and Examples 1-468) were determined using the CellTiter-Meiluncell Luminescent Cell Viability Assay Kit from Dalian Meilun Biotech Co., Ltd. The detailed procedure is as follows: Tumor cells were seeded in 96-well cell culture plates at the densities specified in Table 4. On the following day, the test compounds of the present disclosure were subjected to serial dilution. The dilution can be performed according to one of the following two methods: • (1) The first dilution method: The test compounds of the present disclosure (including the compounds in Table 1, Table 2, and Examples 1-468) were subjected to 5-fold serial dilutions starting from a highest concentration of 2000 μM, resulting in a total of 9 concentrations from high to low (2000, 400, 80, 16, 3.2, 0.64, 0.128, 0.0256, 0.00512 μM). Subsequently, 0.5 μL of the test compound dilution was transferred into the 96-well plate containing the cells, with each well containing 100 μL of cell culture medium. […] Into the 96-well plate, the diluted test compounds and corresponding detection reagents were added, resulting in final test compound concentrations of 500 nM and 10 nM, respectively. The experimental procedure is described below using the diluted 2 μM test compound as an example.
0.5 μL of the aforementioned diluted compound of the present disclosure (including the compounds in Table 1, Table 2, and Examples 1-468) was added to the seeded cells in 100 μL of medium, yielding a final test compound concentration of 10 nM. After the cells were treated with the compounds of the present disclosure for a specified period, the cell viability assay reagent was added to the culture medium according to the kit's instructions to determine cell viability. […] All controls were treated using the same procedure as the compounds of the present disclosure. The growth inhibition curves for the compounds of the present disclosure were plotted using Prism GraphPad software, and the IC50 values were calculated therefrom.

[3] = tested on: Human acute lymphocytic leukemia T lymphocytes cell line (CCRF-CEM); experiment: Inhibition of CCRF-CEM cell proliferation (CellTiter luminescent viability); conditions: Homo sapiens, 96 h, Table IF2, AR inhibitor-based; for inhibition at 0.01 µM: 10 nM, read-out: Inhibition Rate at 10 nM (%); for inhibition at 0.5 µM: 500 nM, read-out: Inhibition Rate at 500 nM (%)
[4] = tested on: Human diffuse large B-cell lymphoma cell line (TMD8); experiment: Inhibition of TMD8 cell proliferation (CellTiter luminescent viability); conditions: Homo sapiens, TMD8, 96 h, Table IF1, AR inhibitor-based; for inhibition at 0.01 µM: TMD8, 10 nM, read-out: Inhibition Rate at 10 nM (%); for inhibition at 0.5 µM: TMD8, 500 nM, read-out: Inhibition Rate at 500 nM (%)

Degradation of substrate protein AR (substrate protein remaining %) [1]: A (0%≤substrate protein remaining %≤80%)
SMILES: N#Cc1ccc(O[C@H]2CC[C@H](NC(=O)c3ccc(N4CCC(CN5CCN(c6ccc7c(c6)C(=O)N(N6CCC(=O)NC6=O)C7=O)CC5)CC4)nn3)CC2)cc1Cl [GT-05225, N-((1r,4r)-4-(3-chloro-4-cyanophenoxy)cyclohexyl)-6-(4-((4-(2-(2,4-dioxotetrahydropyrimidin-1(2H)-yl)-1,3-dioxoisoindolin-5-yl)piperazin-1-yl)methyl)piperidin-1-yl)pyridazine-3-carboxamide]

Degradation of substrate protein AR (substrate protein remaining %) [1]: A (0%≤substrate protein remaining %≤80%)
SMILES: CC1(C)[C@H](NC(=O)c2ccc(N3CCC(CN4CCN(c5ccc6c(c5F)C(=O)N(N5CCC(=O)NC5=O)C6=O)CC4)CC3)nc2)C(C)(C)[C@H]1Oc1ccc(C#N)c(Cl)c1 [GT-05828, N-((1r,3r)-3-(3-chloro-4-cyanophenoxy)-2,2,4,4-tetramethylcyclobutyl)-6-(4-((4-(2-(2,4-dioxotetrahydropyrimidin-1(2H)-yl)-4-fluoro-1,3-dioxoisoindolin-5-yl)piperazin-1-yl)methyl)piperidin-1-yl)nicotinamide]

Degradation of substrate protein AR (substrate protein remaining %) [1]: A (0%≤substrate protein remaining %≤80%)
SMILES: N#Cc1ccc(O[C@H]2CC[C@H](NC(=O)c3ccc(N4CCC(CN5CCN(C6CCN(c7ccc8c(c7)C(=O)N(N7CCC(=O)NC7=O)C8=O)CC6)CC5)CC4)nn3)CC2)cc1Cl [GT-05829, N-((1r,4r)-4-(3-chloro-4-cyanophenoxy)cyclohexyl)-6-(4-((4-(1-(2-(2,4-dioxotetrahydropyrimidin-1(2H)-yl)-1,3-dioxoisoindolin-5-yl)piperidin-4-yl)piperazin-1-yl)methyl)piperidin-1-yl)pyridazine-3-carboxamide]
inhibition at 0.01 µM [3]: 15 to 20%
inhibition at 0.5 µM [3]: 20 to 30%
inhibition at 0.01 µM [4]: 10 to 15%
inhibition at 0.5 µM [4]: 35 to 40%

Second part, the molecule before the results:

SMILES: Cc1ccc(-c2c(C)noc2C)cc1N(CC1CCN(Cc2ccc3c(c2)C(=O)N(N2CCC(=O)NC2=O)C3=O)CC1)c1ccc(C2(C#N)CC2)cc1 [GT-06410, 1-(4-((5-(3,5-dimethylisoxazol-4-yl)-2-methylphenyl)((1-((2-(2,4-dioxotetrahydropyrimidin-1(2H)-yl)-1,3-dioxoisoindolin-5-yl)methyl)piperidin-4-yl)methyl)amino)phenyl)cyclopropane-1-carbonitrile]
Degradation of substrate protein AR (substrate protein remaining %) [1]: A (0%≤substrate protein remaining %≤80%)

SMILES: N#Cc1ccc(O[C@H]2CC[C@H](NC(=O)c3ccc(N4CCC(CN5CC6CCC(C5)N6c5ccc6c(c5)C(=O)N(N5CCC(=O)NC5=O)C6=O)CC4)nn3)CC2)cc1Cl [GT-05229, N-((1r,4r)-4-(3-chloro-4-cyanophenoxy)cyclohexyl)-6-(4-((8-(2-(2,4-dioxotetrahydropyrimidin-1(2H)-yl)-1,3-dioxoisoindolin-5-yl)-3,8-diazabicyclo[3.2.1]octan-3-yl)methyl)piperidin-1-yl)pyridazine-3-carboxamide]
inhibition at 0.01 µM ([2]; 10 nM, read-out: Inhibition Rate at 10 nM (%)): 20 to 30%
inhibition at 0.5 µM ([2]; 500 nM, read-out: Inhibition Rate at 500 nM (%)): 40 to 60%
inhibition at 0.01 µM [3]: 30 to 40%
inhibition at 0.5 µM [3]: 60 to 80%
inhibition at 0.01 µM [4]: 40 to 60%
inhibition at 0.5 µM [4]: 60 to 80%
Degradation of substrate protein AR (substrate protein remaining %) [1]: A (0%≤substrate protein remaining %≤80%)

SMILES: Cn1cc(-c2cc(S(C)(=O)=O)ccc2OCc2ccc3c(c2)CN(N2CCC(=O)NC2=O)C3=O)c2cc[nH]c2c1=O [GT-06413, 1-(5-((2-(6-methyl-7-oxo-6,7-dihydro-1H-pyrrolo[2,3-c]pyridin-4-yl)-4-(methylsulfonyl)phenoxy)methyl)-1-oxoisoindolin-2-yl)dihydropyrimidine-2,4 (1H,3H)-dione]
Degradation of substrate protein AR (substrate protein remaining %) [1]: A (0%≤substrate protein remaining %≤80%)

SMILES: Cc1ccc(-c2c(C)noc2C)cc1N(CC1CCN(CC2CCN(c3ccc4c(c3)C(=O)N(N3CCC(=O)NC3=O)C4=O)CC2)CC1)c1ccc(C2(C#N)CC2)cc1 [GT-06418, 1-(4-((5-(3,5-dimethylisoxazol-4-yl)-2-methylphenyl)((1-((1-(2-(2,4-dioxotetrahydropyrimidin-1(2H)-yl)-1,3-dioxoisoindolin-5-yl)piperidin-4-yl)methyl)piperidin-4-yl)methyl)amino)phenyl)cyclopropane-1-carbonitrile]
Degradation of substrate protein AR (substrate protein remaining %) [1]: A (0%≤substrate protein remaining %≤80%)

SMILES: Cc1ccc(-c2c(C)noc2C)cc1N(CC1CCN(Cc2ccc3c(c2)CN(N2CCC(=O)NC2=O)C3=O)CC1)c1ccc(C2(C#N)CC2)cc1 [GT-06409, 1-(4-((5-(3,5-dimethylisoxazol-4-yl)-2-methylphenyl)((1-((2-(2,4-dioxotetrahydropyrimidin-1(2H)-yl)-1-oxoisoindolin-5-yl)methyl)piperidin-4-yl)methyl)amino)phenyl)cyclopropane-1-carbonitrile]
Degradation of substrate protein AR (substrate protein remaining %) [1]: A (0%≤substrate protein remaining %≤80%)
